Results: patent US20230022117A1, “RNAi-BASED TARGETING COMPOUNDS AND USES THEREOF TO PREVENT ACQUIRED HEARING LOSS” (MUSC FOUNDATION FOR RESEARCH DEVELOPMENT, priority 2019, published 2023)

Columns and labels:
Type in all cases: in vivo, mouse
[1] = test system: CBA/J mice; test: Cisplatin-plus-furosemide-induced hearing loss: ABR threshold shifts; details: CDDP 2.5-4 mg/kg plus furosemide 200 mg/kg IP; measured on day 7 and on day 14 post treatment
[2] = Body weight and survival with CDDP treatment
Protocol: There is no difference in auditory threshold shifts between CDDP 2.5-4 mg/kg with 55-60 dB shifts when measured on day 7 and on day 14 post treatment. […] This model was used to test the effect of AMPKα siRNA.
Body weight was measured before treatment, on treatment days, and 7 and 14 d post treatment. […] Data are presented as means±SD. CDDP2 mg/kg: n=2, CDDP 2.5 mg/kg: n=5, CDDP 3 mg/kg: n=2, CDDP 4 mg/kg: n=3.

[3] = test system: CBA/J mice; test: Kanamycin-plus-furosemide-induced hearing loss: ABR threshold shifts; details: 8, 16, and 32 kHz; for hearing loss / auditory threshold shifts (in words): single treatment, KM 800 mg/kg SQ and/or Fu 200 mg/kg IP, 14 d after the injections; for KM-furosemide-induced auditory threshold shifts: 14 d after the injection
[4] = test system: CaMKKβ; test: Silencing efficiency: CaMKKβ immunolabeling in OHCs after siRNA delivery; details: basal turn, 22-32 kHz
Description: (§1) siCaMKKβ (Thermo Fisher, #n437808) (sense: […] SEQ ID NO: 1; antisense […] SEQ ID NO: 2) or siControl (Thermo Fisher, #4390844) was locally delivered via intra-tympanic application onto the RWM as previously described (Oishi et al., 2013; Hill et al., 2016) or via PSC to the endolymph based on reports (Guo, 2018 #3975; Tao, 2018 #3973). Briefly, after anesthesia, a retroauricular incision was made to approach the temporal bone. For intra-tympanic delivery onto the RWM, the otic bulla was identified ventral to the facial nerve and a shallow hole was made in the thin part of the otic bulla with a 30-G needle and enlarged with forceps to a diameter of 2 mm in order to visualize the round window. […]
Immunohistochemistry is well accepted as a semi-quantitative methodology when used with careful consideration of the utility and semi-quantitative nature of these assays (Taylor, 2006 #3978; Walker, 2006 #3979). The specificity of antibodies must be first detected by Western blot analysis. Antibodies showing only a single band with the correct molecular weight were used for immunolabeling on surface preparations and quantification of signaling in OHCs. […] The grayscale value was determined in only the hair cells to quantify the change in fluorescence intensity. This procedure provided quantitative measurements that are not confounded by protein expression in other cell types of the cochlea. […]

[5] = test system: CBA/J mice; test: Noise-induced hearing loss (101-dB broad band noise): ABR threshold shifts; details: pretreatment via intra-tympanic delivery on RWM; 8, 16, and 32 kHz; 14 d after noise exposure; vs siControl
Protocol: (§2) Unrestrained CBA/J male mice at the age of 12 weeks (one mouse per stainless steel wire cage, approximately 9 cm^3) were exposed to broad band noise from to 2-20 kHz at 101 dB sound pressure level (SPL) for 2 h to induce permanent threshold shifts with loss of synaptic ribbons and OHCs, but not IHCs, or 106 dB to induce permanent threshold shifts with losses of ribbons, OHCs, and IHCs by 14 d after the noise exposure. […] Audio CD sound files were created and equalized with audio editing software (Audition 3; Adobe Systems, Inc.). The background sound intensity of the environment surrounding the cages was 65 dB as measured with a sound level meter (model 1200; Quest Technologies). Sound levels for noise exposure are calibrated with a sound level meter at multiple locations within the sound chamber to ensure the uniformity of the sound field before and after exposure. Control mice were kept in silence (without use of the loudspeaker) within the same chamber for 2 h. […]
ABRs were measured in the left ears of anaesthetized mice before and two weeks after noise exposure. […] Body temperature was monitored and maintained near 37° C. with a heating pad. […] ABRs were measured at 8, 16, and 32 kHz. […] Thresholds were determined for each frequency by reducing the intensity in 10-dB increments and then in 5-dB steps near threshold until no organized responses were detected. […]

[6] = test system: CBA/J mice; test: Noise-induced hearing loss (101-dB noise): DPOAE thresholds; details: pretreatment via intra-tympanic delivery on RWM; 12-40 kHz; 14 d after noise exposure
[7] = test system: outer hair cells (OHCs); test: Noise-induced OHC loss: hair cell counts along the cochlear duct; details: pretreatment via intra-tympanic delivery on RWM; 101-dB noise; 14 d after exposure
Protocol: as §2
Images from the apex through the base of the DAB-stained preparations were captured using a 20× lens on the Zeiss microscope. The lengths of the cochlear epithelia were measured and recorded in millimeters. OHCs were counted from the apex to the base along the entire length of the mouse cochlear epithelium.

[8] = test system: IHC synapses; test: Noise-induced loss of IHC synapses: CtBP2/GluA2 counts; details: pretreatment via intra-tympanic delivery onto the RWM; 101-dB noise; 14 d; loss at 22 and 32 kHz
Protocol: as §2, with “exposure.” for “exposure. Control mice were kept in silence (without use of the loudspeaker) within the same chamber for 2 h.”
A procedure as previously described by Hill et al., 2016 was followed. Immunofluorescence of CtBP2 on surface preparations was quantified from original confocal images, each taken with a 63×-magnification lens under identical Z-stack conditions in […] intervals and equal parameter settings for laser gains and PMT gains. […] The number of synaptic ribbons was counted using ImageJ software (National Institutes of Health, Bethesda, Md.). […]

[9] = test system: CBA/J mice; test: Kanamycin-furosemide-induced damage to OHC function: DPOAE; details: siRNA pretreatment via PSC; 14 d after the injection
[10] = test system: outer hair cells (OHCs); test: Kanamycin-furosemide-induced OHC loss: hair cell counts; details: siRNA pretreatment via PSC; 14 d after the lesions
Description: as §1, with “window. A customized sterile micro medical tube was inserted into the hole just above the round window niche (RWN) to slowly deliver 10 μL (0.6 μg) of siCaMKKβ or siControl. For PSC delivery, the stemocleidomastoid muscle was separated to expose the PSC. A small hole was made with the tip of a 30-G needle on the PSC and left open for about 1 min (there was no obvious endolymph leakage).” for “window.”
Images from the apex through the base of the DAB-stained preparations were captured using a 20× lens on the Zeiss microscope. The lengths of the cochlear epithelia were measured and recorded in millimeters. OHCs were counted from the apex to the base along the entire length of the mouse cochlear epithelium. […]

[11] = test system: OHC mechanotransduction channels; test: FM1-43 uptake into OHCs (mechanotransduction channel function); details: siRNA delivered through the PSC 48 h before application of FM1-43
Protocol: Since aminoglycoside antibiotics are known to enter outer hair cells (OHCs) mainly through mechanotransduction channels (MTCs), to address if protective effects of pretreatment with siCaMKKβ is due to blockade of kanamycin and/or furosemide entering OHCs, we assessed OHC MTCs using FM1-43FX, based on prior literature (Meyers et al., 2003; Taylor et al., 2008; Nakanishi et al., 2018). siCaMKKβ was delivered through the posterior semicircular canal (PSC) 48 h before application of FM1-43 to measure MTC function in OHCs. […] Scale bar=10 μm.
Since aminoglycoside antibiotics are known to enter outer hair cells (OHCs) mainly through mechanotransduction channels (MTCs), to address if protective effects of pretreatment with siAMPKα1 is due to blockade of kanamycin and/or furosemide entering OHCs, we assessed OHC MTCs using FM1-43FX, based on prior literature (Meyers et al., 2003; Taylor et al., 2008; Nakanishi et al., 2018). siAMPKα was delivered through the posterior semicircular canal (PSC) 48 h before application of FM1-43 to measure MTC function in OHCs. […] Scale bar=10 μm.

## [NH2][Pt]([NH2])([Cl])[Cl] [CDDP, cisplatin]
[1]
  auditory threshold shifts: 55-60 dB
[2]; 3 mg/kg CDDP treated group, day 8 after the treatment
  death: One mouse of the 3 mg/kg CDDP treated group died
[2]; CDDP at and above 3 mg/kg, day 7 post treatment vs beginning of the treatment
  changes in body weight: loss of body weight
[2]; CDDP at doses below or equal 2.5 mg/kg
  changes in body weight: no significant changes

## NC[C@H]1O[C@H](O[C@H]2[C@H](O)[C@@H](O[C@H]3O[C@H](CO)[C@@H](O)[C@H](N)[C@H]3O)[C@H](N)C[C@@H]2N)[C@H](O)[C@@H](O)[C@@H]1O [KM, kanamycin, reference compound]
[3]
  hearing loss / auditory threshold shifts (in words): does not induce hearing loss

## siCaMKKβ: CaMKKβ siRNA (Thermo Fisher, #n437808); sense GAGCACAAAUAAUUGUUUUTT SEQ ID NO: 1; antisense AAAACAAUUAUUUGUGCUCTA SEQ ID NO: 2 (chemistry not given here)
[4]; 72 h after PSC delivery
  decrease of CaMKKβ immunolabeling in grayscale in OHCs compared to siControls: about 90%
[4]; 72 h after intra-tympanic delivery onto the RWM
  decrease of CaMKKβ immunolabeling in grayscale in OHCs compared to siControls: about 40%
[5]
  threshold shifts induced by exposure to 101-dB noise: significantly decreases
[6]
  101-dB-noise-increased DPOAE thresholds: significantly attenuates
[7]
  noise-induced OHC loss: significantly reduced
[8]
  noise-induced loss of synapses (CtBP2/GluA2): prevented
[3]; siRNA pretreatment via PSC
  KM-furosemide-induced auditory threshold shifts: completely prevented
[3]; siRNA pretreatment via intra-tympanic delivery onto the RWM
  KM-furosemide-induced auditory threshold shifts: significant reduction
[9]
  KM-furosemide-induced reduction of DPOAE (damage to OHC function): completely prevented
[10]
  KM-furosemide-induced OHC loss: completely prevents
[11]
  FM1-43 uptake into OHCs compared with siControl mice: does not change

## NS(=O)(=O)c1cc(C(=O)O)c(NCc2ccco2)cc1Cl [furosemide, reference compound]
[3]
  hearing loss / auditory threshold shifts (in words): does not induce hearing loss
